This experiment deals with ICR CD strain male mice. As to the kind of experiment: Gastric emptying enhancing activity (phenol red meal). The experiment is classed as in vivo. The note with it: Mus musculus, ip, 0.25 h, 3.0 mg/kg i.p., gastric emptying at 15 min after test meal, increase vs vehicle. The method, then: ICR CD strain male mice (body weight, 25˜30 g; 8 mice per one group) were fasted for 24 h but allowed free access to water until 3 hours before the test.
Compounds to be tested for promoting GI motility were injected intraperitoneally or given orally at 30 min or 60 min prior to phenol red meal administration. Fifteen (15) min after administration of a test meal (0.5% Phenol red in 1.5% methylcellulose solution), mice were sacrificed and the stomach (pylorus˜cardia) was removed and collected to vial. The stomach was homogenized with its contents in 0.1N NaOH and the mixture was centrifuged (700*g) for 20 min. 2.5 mL of the supernatant was added to 0.25 mL of trichloroacetic acid solution (20% w/v) to precipitate proteins. After centrifuging (2600*g) for 20 min, 0.5 mL of the supernatant was added to 0.25 mL of 1N NaOH. The mixture was homogenized and its absorbance (Abs) was read at 560 nm.
In each experiment, one group was sacrificed just after the administration of the test meal and was considered as a standard (0% emptying). The gastric emptying (GE) at the 15 min period was calculated according to the following formula. GE (%)=(1−Abstest/Absstandard)×100 Increase (%)=(GE %test−GE %vehicle)/GE %vehicle*100

Counter-ions that a name gives are not always drawn.

On to `CC(C)n1c(=O)n(C(=O)NCC2CCN(CCC(O)c3ccccc3)CC2)c2ccccc21` (stereo not shown) [Example 136, N-[[1-(3-hydroxy-3-phenylpropyl)piperidin-4-yl]methyl]-2-oxo-3-propan-2-ylbenzimidazole-1-carboxamide; hydrochloride], for which the change in vivo at 3 mg/kg is 64.1%.

Source of the values: patent US10144709B2, “Piperidine compounds, pharmaceutical composition comprising the same and its use” (SK BIOPHARMACEUTICALS CO., LTD., priority 2008, dated 2018).
